These results are taken from patent US20240238425A1, “HSD17B13 Inhibitors and/or Degraders” (Pfizer Inc., priority 2022, published 2024).

In the experiment the test system is HiBiT-HSD17β13 fusion protein (N-terminal HiBiT-tagged HSD17β13 isoform D) in Huh7 HiBiT-HSD17β13 OE cells. Kind of experiment: Whole-cell Huh7-HSD17B13 HiBiT assay (degrader potency and maximal efficacy, luminescence readout). To be noted: 24 hour incubation, geometric mean, * = geometric mean for all forms tested (parent and salt forms); for DC50: read-out: Huh7_HIBIT-HSD17β13_DC50 GMean DC50; for Huh7_HIBIT-HSD17β13_DC50 GMean Asymptote Maximum: max. concentration 1 μM. The experiment is classed as cell-based, human. In outline:
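Luminescence from lytic HiBiT detection tracked residual HiBiT-HSD17β13 (isoform D, N-terminal tag) in a stable Huh7 overexpressing clone after 24 h compound treatment at 37° C, 11 concentrations up to 1 μM final. Percent effect used DMSO (zero) and parental Huh7 (high) wells; four-parameter fit gave 50% degradation; viability checked by CellTiter-Glo.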

SMILES strings stand for the structures. Structures can show the parent of a compound that is named as a salt.

As to `Cc1ccc(C(=O)N2CCC3(CCN(c4ncc(-c5ccc6cn([C@H]7CC[C@H](CNC(=O)c8cc(F)c(O)c(F)c8F)CC7)nc6c5)cn4)CC3)C2)cc1N1CCC(=O)NC1=O` [Example 58, N-({(1r,4r)-4-[6-(2-{2-[3-(2,4-dioxo-1,3-diazinan-1-yl)-4-methylbenzoyl]-2,8-diazaspiro[4.5]decan-8-yl}pyrimidin-5-yl)-2H-indazol-2-yl]cyclohexyl}methyl)-2,3,5-trifluoro-4-hydroxybenzamide, trifluoroacetate salt], the DC50 came out at 1.5 nM and the “Huh7_HIBIT-HSD17β13_DC50 GMean Asymptote Maximum” value is 73%.
In the case of `Cc1ccc(C(=O)N2CCN(C3COC4(CCN(c5ncc(-c6ccc7cn([C@H]8CC[C@H](CNC(=O)c9cc(F)c(O)c(F)c9F)CC8)nc7c6)cn5)CC4)C3)CC2)cc1N1CCC(=O)NC1=O` (stereo partly shown) [Example 59, N-{[(1r,4r)-4-{6-[2-(3-{4-[3-(2,4-dioxo-1,3-diazinan-1-yl)-4-methylbenzoyl]piperazin-1-yl}-1-oxa-8-azaspiro[4.5]decan-8-yl)pyrimidin-5-yl]-2H-indazol-2-yl}cyclohexyl]methyl}-2,3,5-trifluoro-4-hydroxybenzamide, trifluoroacetate salt], the DC50 came to 1 nM and the “Huh7_HIBIT-HSD17β13_DC50 GMean Asymptote Maximum” value was 80%.
The like results for `O=C1CCN(c2cnn3cc(CCCN4CCN(c5nccc(-c6nc([C@]78CC[C@](CNC(=O)c9cc(F)c(O)c(F)c9F)(CC7)CC8)no6)n5)CC4)ccc23)C(=O)N1` [Example 61, N-[(4-{5-[2-(4-{3-[3-(2,4-dioxo-1,3-diazinan-1-yl)pyrazolo[1,5-a]pyridin-6-yl]propyl}piperazin-1-yl)pyrimidin-4-yl]-1,2,4-oxadiazol-3-yl}bicyclo[2.2.2]octan-1-yl)methyl]-2,3,5-trifluoro-4-hydroxybenzamide, trifluoroacetate salt] were, in that order, 2.6 nM and 72%.
On the same counts, the results for `Cc1ccc(C(=O)N2CCC3(CC2)CCN(c2ncc(-c4ccc5cn([C@H]6CC[C@H](CNC(=O)c7cc(F)c(O)c(F)c7F)CC6)nc5c4)cn2)C3)cc1N1CCC(=O)NC1=O` [Example 63, N-({(1r,4r)-4-[6-(2-{8-[3-(2,4-dioxo-1,3-diazinan-1-yl)-4-methylbenzoyl]-2,8-diazaspiro[4.5]decan-2-yl}pyrimidin-5-yl)-2H-indazol-2-yl]cyclohexyl}methyl)-2,3,5-trifluoro-4-hydroxybenzamide] are 2.6 nM and 80%.
On to `Cc1ccc(C(=O)N2CCC3(CC2)C[C@@H](N2CCN(c4ncc(-c5ccc6cn([C@H]7CC[C@H](CNC(=O)c8cc(F)c(O)c(F)c8F)CC7)nc6c5)cn4)CC2)CO3)cc1N1CCC(=O)NC1=O` [Example 68, N-{[(1r,4r)-4-{6-[2-(4-{(3R)-8-[3-(2,4-dioxo-1,3-diazinan-1-yl)-4-methylbenzoyl]-1-oxa-8-azaspiro[4.5]decan-3-yl}piperazin-1-yl)pyrimidin-5-yl]-2H-indazol-2-yl}cyclohexyl]methyl}-2,3,5-trifluoro-4-hydroxybenzamide, trifluoroacetate salt], for which the DC50 stood at 1.7 nM and the “Huh7_HIBIT-HSD17β13_DC50 GMean Asymptote Maximum” value amounted to 79%.
In the case of `O=C1CCN(c2cnn3cc(CN4CCN(c5cnc(-c6ccc7cn([C@H]8CC[C@H](CNC(=O)c9cc(F)c(O)c(F)c9F)CC8)nc7c6)cn5)CC4)ccc23)C(=O)N1` [Example 70, N-{[(1r,4r)-4-{6-[5-(4-{[3-(2,4-dioxo-1,3-diazinan-1-yl)pyrazolo[1,5-a]pyridin-6-yl]methyl}piperazin-1-yl)pyrazin-2-yl]-2H-indazol-2-yl}cyclohexyl]methyl}-2,3,5-trifluoro-4-hydroxybenzamide, trifluoroacetate salt], the DC50 came to 1.1 nM and the “Huh7_HIBIT-HSD17β13_DC50 GMean Asymptote Maximum” value turned out to be 85%.
As to `Cc1ccc(C(=O)N2CCC3(CC2)CC(N2CCN(c4cnc(-c5ccc6cn([C@H]7CC[C@H](CNC(=O)c8cc(F)c(O)c(F)c8F)CC7)nc6c5)cn4)CC2)CO3)cc1N1CCC(=O)NC1=O` (stereo partly shown) [Example 71, N-{[(1r,4r)-4-{6-[5-(4-{8-[3-(2,4-dioxo-1,3-diazinan-1-yl)-4-methylbenzoyl]-1-oxa-8-azaspiro[4.5]decan-3-yl}piperazin-1-yl)pyrazin-2-yl]-2H-indazol-2-yl}cyclohexyl]methyl}-2,3,5-trifluoro-4-hydroxybenzamide, trifluoroacetate salt], the DC50 worked out at 2.4 nM and the “Huh7_HIBIT-HSD17β13_DC50 GMean Asymptote Maximum” value was determined as 76%.
`Cc1ccc(C(=O)N2CCC3(CC2)CC(N2CCN(c4cnc(-c5ccc6cn([C@H]7CC[C@H](CNC(=O)c8cc(F)c(O)c(F)c8F)CC7)nc6c5)cn4)CC2)C3)cc1N1CCC(=O)NC1=O` [Example 72, N-{[(1r,4r)-4-{6-[5-(4-{7-[3-(2,4-dioxo-1,3-diazinan-1-yl)-4-methylbenzoyl]-7-azaspiro[3.5]nonan-2-yl}piperazin-1-yl)pyrazin-2-yl]-2H-indazol-2-yl}cyclohexyl]methyl}-2,3,5-trifluoro-4-hydroxybenzamide, trifluoroacetate salt]: the DC50 was 1.6 nM and the “Huh7_HIBIT-HSD17β13_DC50 GMean Asymptote Maximum” value was determined as 78%.
For the compound `Cc1ccc(C(=O)N2CCC3(CC2)C[C@H](N2CCN(c4ncc(-c5ccc6cn([C@H]7CC[C@H](CNC(=O)c8cc(F)c(O)c(F)c8F)CC7)nc6c5)cn4)CC2)CO3)cc1N1CCC(=O)NC1=O` [Example 73, N-{[(1r,4r)-4-{6-[2-(4-{(3S)-8-[3-(2,4-dioxo-1,3-diazinan-1-yl)-4-methylbenzoyl]-1-oxa-8-azaspiro[4.5]decan-3-yl}piperazin-1-yl)pyrimidin-5-yl]-2H-indazol-2-yl}cyclohexyl]methyl}-2,3,5-trifluoro-4-hydroxybenzamide, trifluoroacetate salt], the DC50 came to 0.96 nM and the “Huh7_HIBIT-HSD17β13_DC50 GMean Asymptote Maximum” value is reported as 76%.
Turning to `Cc1ccc(C(=O)N2CCC3(CC2)CC(N2CCN(c4ccc5cn([C@H]6CC[C@H](CNC(=O)c7cc(F)c(O)c(F)c7F)CC6)nc5c4)CC2)C3)cc1N1CCC(=O)NC1=O` [Example 82, N-({(1r,4r)-4-[6-(4-{7-[3-(2,4-dioxo-1,3-diazinan-1-yl)-4-methylbenzoyl]-7-azaspiro[3.5]nonan-2-yl}piperazin-1-yl)-2H-indazol-2-yl]cyclohexyl}methyl)-2,3,5-trifluoro-4-hydroxybenzamide, trifluoroacetate salt], the DC50 stood at 2 nM and the “Huh7_HIBIT-HSD17β13_DC50 GMean Asymptote Maximum” value turned out to be 74%.
`O=C1CCN(c2cc(C(=O)N3CCC(CN4CCN(c5ncc(-c6ccc7cn([C@H]8CC[C@H](CNC(=O)c9cc(F)c(O)c(F)c9F)CC8)nc7c6)cn5)CC4)CC3)ccc2Cl)C(=O)N1` [Example 89, N-{[(1r,4r)-4-(6-{2-[4-({1-[4-chloro-3-(2,4-dioxo-1,3-diazinan-1-yl)benzoyl]piperidin-4-yl}methyl)piperazin-1-yl]pyrimidin-5-yl}-2H-indazol-2-yl)cyclohexyl]methyl}-2,3,5-trifluoro-4-hydroxybenzamide, formate salt]: the DC50 came to 3 nM and the “Huh7_HIBIT-HSD17β13_DC50 GMean Asymptote Maximum” value is reported as 77%.

As a reminder, the DC50 is the concentration giving 50% degradation.
